Assay results as given in US20260035359A1, “HERBICIDAL IMIDAZOLE COMPOUNDS” (SYNGENTA CROP PROTECTION AG, priority 2022, published 2026).

What was measured:
Format in all cases: in vivo
[1] = test system: Amaranthus pa/meri (AMAPA); experiment: Post-emergence herbicidal glasshouse test; conditions: 250 g/ha, sprayed after 8 days cultivation, evaluated after 13 days
How it was run: (§1)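 Sown in standard soil, sprayed 1 day after sowing (pre-emergence) or after 8 days' growth (post-emergence) with acetone/water (50:50) plus 0.5% Tween 20, at 250 g/ha unless stated. Glasshouse 24/16 °C day/night, 14 h light, 65% humidity. Damage scored 13 days later on a five-point scale (5=81-100% to 1=0-20%).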

[2] = test system: Ipomoea hederacea (IPOHE); experiment: Post-emergence herbicidal glasshouse test; conditions: 250 g/ha, sprayed after 8 days cultivation, evaluated after 13 days
How it was run: as §1

[3] = test system: Amaranthus retoflexus (AMARE); experiment: Post-emergence herbicidal glasshouse test; conditions: 250 g/ha, sprayed after 8 days cultivation, evaluated after 13 days
How it was run: as §1

Setaria faberi (SETFA) [4] = experiment: Post-emergence herbicidal glasshouse test; conditions: 250 g/ha, sprayed after 8 days cultivation, evaluated after 13 days
How it was run: as §1

[5] = test system: Echinochloa crus-gali (ECHCG); experiment: Post-emergence herbicidal glasshouse test; conditions: 250 g/ha, sprayed after 8 days cultivation, evaluated after 13 days
How it was run: as §1

[6] = test system: Amaranthus pa/meri (AMAPA); experiment: Pre-emergence herbicidal glasshouse test; conditions: 250 g/ha, sprayed after one day cultivation, evaluated after 13 days
How it was run: as §1

[7] = test system: Ipomoea hederacea (IPOHE); experiment: Pre-emergence herbicidal glasshouse test; conditions: 250 g/ha, sprayed after one day cultivation, evaluated after 13 days
How it was run: as §1

[8] = test system: Amaranthus retoflexus (AMARE); experiment: Pre-emergence herbicidal glasshouse test; conditions: 250 g/ha, sprayed after one day cultivation, evaluated after 13 days
How it was run: as §1

Setaria faberi (SETFA) [9] = experiment: Pre-emergence herbicidal glasshouse test; conditions: 250 g/ha, sprayed after one day cultivation, evaluated after 13 days
How it was run: as §1

[10] = test system: Echinochloa crus-gali (ECHCG); experiment: Pre-emergence herbicidal glasshouse test; conditions: 250 g/ha, sprayed after one day cultivation, evaluated after 13 days
How it was run: as §1

SMILES	percentage damage caused to the plant, AMAPA [1]	percentage damage caused to the plant, IPOHE [2]	percentage damage caused to the plant, AMARE [3]	percentage damage caused to the plant, SETFA (Setaria faberi (SETFA) [4])	percentage damage caused to the plant, ECHCG [5]	percentage damage caused to the plant, AMAPA [6]	percentage damage caused to the plant, IPOHE [7]	percentage damage caused to the plant, AMARE [8]	percentage damage caused to the plant, SETFA (Setaria faberi (SETFA) [9])	percentage damage caused to the plant, ECHCG [10]
FC(F)(F)c1cn(Cc2ncc(Cl)cn2)c(CCn2ccc(C(F)(F)F)n2)n1 [Compound 1.033]	3 (3=41-60%)	4 (4=61-80%)	4 (4=61-80%)	3 (3=41-60%)	3 (3=41-60%)	5 (5=81-100%)	5 (5=81-100%)	5 (5=81-100%)	4 (4=61-80%)	3 (3=41-60%)
CCOCCc1nc(C(F)(F)F)cn1Cc1ncc(Cl)cn1 [Compound 1.038]	3 (3=41-60%)	4 (4=61-80%)	4 (4=61-80%)	3 (3=41-60%)	3 (3=41-60%)	5 (5=81-100%)	5 (5=81-100%)	5 (5=81-100%)	5 (5=81-100%)	5 (5=81-100%)
CCOCc1nc(C(F)(F)F)cn1Cc1ncc(Cl)cn1 [Compound 1.039]	2 (2=21-40%)	2 (2=21-40%)	2 (2=21-40%)	1 (1=0-20%)	1 (1=0-20%)	3 (3=41-60%)	2 (2=21-40%)	4 (4=61-80%)	2 (2=21-40%)	1 (1=0-20%)
CS(=O)(=O)CCc1nc(C(F)(F)F)cn1Cc1ncc(Cl)cn1 [Compound 1.048]	4 (4=61-80%)	4 (4=61-80%)	4 (4=61-80%)	1 (1=0-20%)	1 (1=0-20%)	4 (4=61-80%)	5 (5=81-100%)	5 (5=81-100%)	1 (1=0-20%)	1 (1=0-20%)
CCCCc1nc(C(F)F)cn1Cc1ncc(Cl)cc1F [Compound 1.054, 2-[[2-butyl-4-(difluoromethyl)imidazol-1-yl]methyl]-5-chloro-3-fluoro-pyridine]	2 (2=21-40%)	2 (2=21-40%)	3 (3=41-60%)	1 (1=0-20%)	1 (1=0-20%)	4 (4=61-80%)	1 (1=0-20%)	3 (3=41-60%)	1 (1=0-20%)	1 (1=0-20%)
N#CC1(c2nc(C(F)(F)F)cn2Cc2ncc(Cl)cn2)CC1 [Compound 1.060]	2 (2=21-40%)	2 (2=21-40%)	2 (2=21-40%)	1 (1=0-20%)	1 (1=0-20%)	2 (2=21-40%)	3 (3=41-60%)	2 (2=21-40%)	1 (1=0-20%)	1 (1=0-20%)
CC(C)(C#N)Cc1nc(C(F)(F)F)cn1Cc1ncc(Cl)cn1 [Compound 1.061]	3 (3=41-60%)	4 (4=61-80%)	4 (4=61-80%)	1 (1=0-20%)	1 (1=0-20%)	3 (3=41-60%)	4 (4=61-80%)	3 (3=41-60%)	1 (1=0-20%)	1 (1=0-20%)
CC(C)(C#N)CCc1nc(C(F)(F)F)cn1Cc1ncc(Cl)cn1 [Compound 1.062]	2 (2=21-40%)	3 (3=41-60%)	2 (2=21-40%)	2 (2=21-40%)	1 (1=0-20%)	5 (5=81-100%)	5 (5=81-100%)	5 (5=81-100%)	4 (4=61-80%)	4 (4=61-80%)
N#CC1(c2nc(C(F)(F)F)cn2Cc2ncc(Cl)cc2F)CC1 [Compound 1.069]	4 (4=61-80%)	4 (4=61-80%)	4 (4=61-80%)	1 (1=0-20%)	1 (1=0-20%)	4 (4=61-80%)	4 (4=61-80%)	5 (5=81-100%)	1 (1=0-20%)	1 (1=0-20%)
FC(F)c1nc(C(F)(F)F)cn1Cc1ncc(Cl)cn1 [Compound 1.070, 5-chloro-2-[[2-(difluoromethyl)-4-(trifluoromethyl)imidazol-1-yl]methyl]pyrimidine]	1 (1=0-20%)	2 (2=21-40%)	1 (1=0-20%)	1 (1=0-20%)	1 (1=0-20%)	5 (5=81-100%)	3 (3=41-60%)	5 (5=81-100%)	1 (1=0-20%)	1 (1=0-20%)
FC(F)(F)c1cn(Cc2ncc(Cl)cn2)c(CCl)n1 [Compound 1.071, 5-chloro-2-[[2-(chloromethyl)-4-(trifluoromethyl)imidazol-1-yl]methyl]pyrimidine]	1 (1=0-20%)	1 (1=0-20%)	1 (1=0-20%)	1 (1=0-20%)	1 (1=0-20%)	2 (2=21-40%)	1 (1=0-20%)	3 (3=41-60%)	1 (1=0-20%)	1 (1=0-20%)
